{"source": "paper PMC8909834", "about": "“An Orally Bioavailable and Highly Efficacious Inhibitor of CDK9/FLT3 for the Treatment of Acute Myeloid Leukemia” (Cancers, 2022)", "key": {"[1]": {"tested_on": "MV4-11 cells", "experiment": "Cell cycle analysis (PI, flow cytometry)", "assay_type": "cell-based", "settings": "24 h", "procedure": "(§1) Detection of apoptosis and cell cycle analysis. Detection of apoptosis and cell cycle analysis were performed as described previously. Cells (1 × 10^5 cells/mL) were seeded into a six-well plate (Corning) and incubated overnight at 37 °C, 5% CO2 prior to incubation with different concentrations of CDDD11-8 or control (0.1% final DMSO concentration) for 6, 24, or 72 h. For washout experiments, cells were incubated with compounds for 6 h, then washed three times with 1 × PBS interspersed with centrifugation at 300× g for 5 min to remove compound. After incubation at 37 °C under 5% CO2, cells were centrifuged at 300× g for 5 min to form a pellet, washed with PBS, and incubated with Annexin V/PI (Becton Dickenson, Franklin Lakes, NJ, USA) for 15 min in the dark. For cell cycle analysis, cells were fixed with 70% ethanol (v/v, 4 °C) and incubated in the dark with cell cycle staining solution (50 µg/mL PI, 0.1 mg/mL RNase A, 0.05% Triton X-100) for 1.5 h. Samples were analyzed using a CytoFlex flow cytometer (Beckman Coulter, Brea, CA, USA). Data were analyzed with CytExpert software version 2.1 (Beckman Coulter, Brea, CA, USA)."}, "[2]": {"tested_on": "MOLM-13 cells", "experiment": "Cell cycle analysis (PI, flow cytometry)", "assay_type": "cell-based", "settings": "MOLM-13, 1 µM, 24 h", "procedure": "as §1"}, "[3]": {"experiment": "Caco-2 permeability", "assay_type": "in vitro ADME", "settings": "human"}, "[4]": {"tested_on": "Caco-2 monolayer", "experiment": "Caco-2 permeability", "assay_type": "in vitro ADME", "settings": "Papp B-A/Papp A-B"}, "[5]": {"tested_on": "MV4-11 tumor xenografts", "experiment": "In vivo xenograft study", "settings": "for MST (median survival time): vehicle MST = 38 days; for mice with unmeasurable tumor size (zero tumor volume): day 29, n = 7", "procedure": "In vivo xenograft study. The in vivo efficacy of CDDD11-8 on tumors developed in mice from AML cells was evaluated by engrafting 5 × 10^6 MV4-11 cells suspended in a 1:1 mixture of Matrigel^TM (Becton Dickinson, Corning, NY, USA) and serum-free medium (100 µL) subcutaneously into the right flank of female BALB/c nude (nu/nu) mice (6–7 weeks). When the tumor reached a volume of 100–200 mm^3, mice were randomized into 3 groups (n = 7). Mice in G1 received vehicle (acetate buffer at pH 4.74), while mice in G2 and G3 received CDDD11-8, at 75 and 125 mg/kg, respectively. Both CDDD11-8 and vehicle were administered orally, once a day for 28 days. Clinical signs of toxicity were observed daily; body weights were measured daily during the dosing period and every other day thereafter. Tumor dimensions, i.e., length (L) and width (W), were measured every other day using Vernier calipers. The tumor volume was calculated using the formula 0.52 × L × W^2, where L and W are perpendicularly measured diameters and L ≥ W. Mice were humanely killed by CO2 asphyxiation when the tumor volume reached 1500 mm^3 or the percent loss of body weight exceeded 15%, or the study was completed.\nData were analyzed statistically using GraphPad Prism version 7. Descriptive statistics (frequency, mean, percentage) were used to report tumor volume, body weights, daily change in body weights from day 1 of dosing, and the ratio of tumor volume between treatment and control groups (T/C). Statistical differences in tumor volume between treated and control groups were analyzed using two-way ANOVA, where days on which the tumor volume was measured and treatments were the two independent factors, with a two-tailed significance cut-off level of p < 0.05. Tumor growth inhibition (TGI) was calculated as %TGI = [((VCD − VCB) − (VTD − VTB))/(VCD − VCB)] × 100, where VCD and VTD were the tumor volumes of the vehicle and treated groups on the calculated day, respectively, and VCB and VTB were the tumor volumes of the vehicle and treated groups at baseline (day 1). Kaplan–Meier survival analysis was performed, and group comparisons were done with the Gehan–Breslow–Wilcoxon test with Bonferroni correction method."}}}
{"smiles": "Cc1cnc(N[C@H]2CC[C@H](N)CC2)nc1-c1cnc2ccc(-c3ccccc3)cn12", "note": "[CDDD11-8]", "values": [{"measurement": "increase in the G1 population (increment)", "setting": "[1]; MV4-11, 0.3 µM", "result": 16, "unit": "%"}, {"measurement": "increase of sub-G1 cell population", "setting": "[1]; MV4-11, 1 µM", "result": "greater than 40 fold"}, {"measurement": "increase of sub-G1 cell population", "setting": "[2]", "result": "greater than 40 fold"}, {"measurement": "efflux ratio", "setting": "[3]; Caco-2, Papp B-A/Papp A-B", "result": 4.9}, {"measurement": "Papp A→B", "setting": "[3]; Caco-2, A-B", "result": "6.06 ± 0.49", "unit": "×10⁻⁶ cm/s"}, {"measurement": "Papp B→A", "setting": "[3]; Caco-2, B-A", "result": "29.5 ± 8.47", "unit": "×10⁻⁶ cm/s"}, {"measurement": "Caco-2 Permeability Efflux ratio", "setting": "[4]", "result": 4.87}, {"measurement": "day from which inhibition of tumor growth was statistically significant vs vehicle", "setting": "[5]; 75 mg/kg PO QD", "result": 9, "unit": "days"}, {"measurement": "increase in the life span", "setting": "[5]; 75 mg/kg PO QD 28 days", "result": 29, "unit": "%"}, {"measurement": "MST (median survival time)", "setting": "[5]; 75 mg/kg PO QD 28 days", "result": 49, "unit": "days"}, {"measurement": "T/C%", "setting": "[5]; 75 mg/kg PO QD, day 1", "result": 101, "unit": "%"}, {"measurement": "% TGI", "setting": "[5]; 75 mg/kg PO QD, day 3", "result": 92, "unit": "%"}, {"measurement": "T/C%", "setting": "[5]; 75 mg/kg PO QD, day 3", "result": 75, "unit": "%"}, {"measurement": "% TGI", "setting": "[5]; 75 mg/kg PO QD, day 5", "result": 101, "unit": "%"}, {"measurement": "T/C%", "setting": "[5]; 75 mg/kg PO QD, day 5", "result": 60, "unit": "%"}, {"measurement": "% TGI", "setting": "[5]; 75 mg/kg PO QD, day 7", "result": 95, "unit": "%"}, {"measurement": "T/C%", "setting": "[5]; 75 mg/kg PO QD, day 7", "result": 50, "unit": "%"}, {"measurement": "% TGI", "setting": "[5]; 75 mg/kg PO QD, day 9", "result": 115, "unit": "%"}, {"measurement": "T/C%", "setting": "[5]; 75 mg/kg PO QD, day 9", "result": 32, "unit": "%"}, {"measurement": "% TGI", "setting": "[5]; 75 mg/kg PO QD, day 11", "result": 121, "unit": "%"}, {"measurement": "T/C%", "setting": "[5]; 75 mg/kg PO QD, day 11", "result": 22, "unit": "%"}, {"measurement": "% TGI", "setting": "[5]; 75 mg/kg PO QD, day 13", "result": 127, "unit": "%"}, {"measurement": "T/C%", "setting": "[5]; 75 mg/kg PO QD, day 13", "result": 12, "unit": "%"}, {"measurement": "% TGI", "setting": "[5]; 75 mg/kg PO QD, day 15", "result": 129, "unit": "%"}, {"measurement": "T/C%", "setting": "[5]; 75 mg/kg PO QD, day 15", "result": 8, "unit": "%"}, {"measurement": "% TGI", "setting": "[5]; 75 mg/kg PO QD, day 17", "result": 128, "unit": "%"}, {"measurement": "T/C%", "setting": "[5]; 75 mg/kg PO QD, day 17", "result": 6, "unit": "%"}, {"measurement": "% TGI", "setting": "[5]; 75 mg/kg PO QD, day 19", "result": 125, "unit": "%"}, {"measurement": "T/C%", "setting": "[5]; 75 mg/kg PO QD, day 19", "result": 5, "unit": "%"}, {"measurement": "% TGI", "setting": "[5]; 75 mg/kg PO QD, day 21", "result": 119, "unit": "%"}, {"measurement": "T/C%", "setting": "[5]; 75 mg/kg PO QD, day 21", "result": 5, "unit": "%"}, {"measurement": "% TGI", "setting": "[5]; 75 mg/kg PO QD, day 23", "result": 112, "unit": "%"}, {"measurement": "T/C%", "setting": "[5]; 75 mg/kg PO QD, day 23", "result": 5, "unit": "%"}, {"measurement": "% TGI", "setting": "[5]; 75 mg/kg PO QD, day 25", "result": 105, "unit": "%"}, {"measurement": "T/C%", "setting": "[5]; 75 mg/kg PO QD, day 25", "result": 9, "unit": "%"}, {"measurement": "% TGI", "setting": "[5]; 75 mg/kg PO QD, day 27", "result": 96, "unit": "%"}, {"measurement": "T/C%", "setting": "[5]; 75 mg/kg PO QD, day 27", "result": 15, "unit": "%"}, {"measurement": "% TGI", "setting": "[5]; 75 mg/kg PO QD, day 29", "result": 92, "unit": "%"}, {"measurement": "mice with unmeasurable tumor size (zero tumor volume)", "setting": "[5]; 75 mg/kg PO QD", "result": "one"}, {"measurement": "animals with tumor regression", "setting": "[5]; 75 mg/kg PO QD, starting on day 9, n = 7", "result": "two out of seven animals"}, {"measurement": "day from which inhibition of tumor growth was statistically significant vs vehicle", "setting": "[5]; 125 mg/kg PO QD", "result": 7, "unit": "days"}, {"measurement": "increase in the life span", "setting": "[5]; 125 mg/kg PO QD 28 days", "result": 45, "unit": "%"}, {"measurement": "MST (median survival time)", "setting": "[5]; 125 mg/kg PO QD 28 days", "result": 55, "unit": "days"}, {"measurement": "T/C%", "setting": "[5]; 125 mg/kg PO QD, day 1", "result": 102, "unit": "%"}, {"measurement": "% TGI", "setting": "[5]; 125 mg/kg PO QD, day 3", "result": 127, "unit": "%"}, {"measurement": "T/C%", "setting": "[5]; 125 mg/kg PO QD, day 3", "result": 66, "unit": "%"}, {"measurement": "% TGI", "setting": "[5]; 125 mg/kg PO QD, day 5", "result": 133, "unit": "%"}, {"measurement": "T/C%", "setting": "[5]; 125 mg/kg PO QD, day 5", "result": 47, "unit": "%"}, {"measurement": "% TGI", "setting": "[5]; 125 mg/kg PO QD, day 7", "result": 122, "unit": "%"}, {"measurement": "T/C%", "setting": "[5]; 125 mg/kg PO QD, day 7", "result": 36, "unit": "%"}, {"measurement": "% TGI", "setting": "[5]; 125 mg/kg PO QD, day 9", "result": 142, "unit": "%"}, {"measurement": "T/C%", "setting": "[5]; 125 mg/kg PO QD, day 9", "result": 16, "unit": "%"}, {"measurement": "% TGI", "setting": "[5]; 125 mg/kg PO QD, day 11", "result": 137, "unit": "%"}, {"measurement": "T/C%", "setting": "[5]; 125 mg/kg PO QD, day 11", "result": 12, "unit": "%"}, {"measurement": "% TGI", "setting": "[5]; 125 mg/kg PO QD, day 13", "result": 139, "unit": "%"}, {"measurement": "T/C%", "setting": "[5]; 125 mg/kg PO QD, day 13", "result": 4, "unit": "%"}, {"measurement": "% TGI", "setting": "[5]; 125 mg/kg PO QD, day 15", "result": 136, "unit": "%"}, {"measurement": "T/C%", "setting": "[5]; 125 mg/kg PO QD, day 15", "result": 3, "unit": "%"}, {"measurement": "% TGI", "setting": "[5]; 125 mg/kg PO QD, day 17", "result": 133, "unit": "%"}, {"measurement": "T/C%", "setting": "[5]; 125 mg/kg PO QD, day 17", "result": 2, "unit": "%"}, {"measurement": "% TGI", "setting": "[5]; 125 mg/kg PO QD, day 19", "result": 130, "unit": "%"}, {"measurement": "T/C%", "setting": "[5]; 125 mg/kg PO QD, day 19", "result": 2, "unit": "%"}, {"measurement": "% TGI", "setting": "[5]; 125 mg/kg PO QD, day 21", "result": 123, "unit": "%"}, {"measurement": "T/C%", "setting": "[5]; 125 mg/kg PO QD, day 21", "result": 2, "unit": "%"}, {"measurement": "% TGI", "setting": "[5]; 125 mg/kg PO QD, day 23", "result": 117, "unit": "%"}, {"measurement": "T/C%", "setting": "[5]; 125 mg/kg PO QD, day 23", "result": 1, "unit": "%"}, {"measurement": "% TGI", "setting": "[5]; 125 mg/kg PO QD, day 25", "result": 114, "unit": "%"}, {"measurement": "T/C%", "setting": "[5]; 125 mg/kg PO QD, day 25", "result": 1, "unit": "%"}, {"measurement": "% TGI", "setting": "[5]; 125 mg/kg PO QD, day 27", "result": 112, "unit": "%"}, {"measurement": "T/C%", "setting": "[5]; 125 mg/kg PO QD, day 27", "result": 1, "unit": "%"}, {"measurement": "% TGI", "setting": "[5]; 125 mg/kg PO QD, day 29", "result": 109, "unit": "%"}, {"measurement": "animals with tumor regression still maintained", "setting": "[5]; 125 mg/kg PO QD, day 29", "result": "six out of seven mice"}, {"measurement": "mice with unmeasurable tumor size (zero tumor volume)", "setting": "[5]; 125 mg/kg PO QD", "result": "three"}, {"measurement": "animals with tumor regression", "setting": "[5]; 125 mg/kg PO QD, from day 7, n = 7", "result": "all the mice"}, {"measurement": "tolerability", "setting": "[5]; 75 and 125 mg/kg PO QD 28 days, tumor-bearing mice", "result": "well tolerated"}]}
